Source: ChEMBL document CHEMBL1130848, “Synthesis and preliminary evaluation of (S)-2-(4'-carboxycubyl)glycine, a new selective mGluR1 antagonist” (Bioorg Med Chem Lett, 1998)

Assays:
[1] = molecular target: Metabotropic glutamate receptor 1 (Homo sapiens, UniProt Q13255); assay: Inhibitory activity against mGluR1 receptor
[2] = molecular target: Metabotropic glutamate receptor 2 (Homo sapiens, UniProt Q14416); assay: Concentration required to inhibit mGluR2 receptor
Chain of Metabotropic glutamate receptor 2 (Q14416 whole entry): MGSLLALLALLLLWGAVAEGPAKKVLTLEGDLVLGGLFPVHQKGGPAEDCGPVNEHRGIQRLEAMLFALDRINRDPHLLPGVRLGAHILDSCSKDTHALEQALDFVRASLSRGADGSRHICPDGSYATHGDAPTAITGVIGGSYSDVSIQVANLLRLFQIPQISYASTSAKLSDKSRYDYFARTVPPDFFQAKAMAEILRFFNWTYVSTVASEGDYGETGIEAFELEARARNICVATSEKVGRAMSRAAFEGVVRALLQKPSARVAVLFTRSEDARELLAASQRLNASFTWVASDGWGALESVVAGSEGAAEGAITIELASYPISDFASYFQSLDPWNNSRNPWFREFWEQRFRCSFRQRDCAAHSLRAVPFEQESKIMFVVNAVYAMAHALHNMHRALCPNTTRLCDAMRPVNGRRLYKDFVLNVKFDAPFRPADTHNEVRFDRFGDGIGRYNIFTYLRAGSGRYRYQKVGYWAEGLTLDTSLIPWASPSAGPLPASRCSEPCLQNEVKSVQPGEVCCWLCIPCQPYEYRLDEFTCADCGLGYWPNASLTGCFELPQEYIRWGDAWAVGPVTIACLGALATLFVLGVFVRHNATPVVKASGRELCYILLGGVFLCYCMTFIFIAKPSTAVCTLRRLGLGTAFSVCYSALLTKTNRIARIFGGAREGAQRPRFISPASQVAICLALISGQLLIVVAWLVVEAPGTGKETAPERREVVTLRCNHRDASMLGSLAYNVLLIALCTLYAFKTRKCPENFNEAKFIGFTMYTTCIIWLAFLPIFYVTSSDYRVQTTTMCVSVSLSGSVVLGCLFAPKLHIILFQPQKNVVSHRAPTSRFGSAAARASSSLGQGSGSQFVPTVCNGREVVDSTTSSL

Chain of Metabotropic glutamate receptor 1 (Q13255 whole entry): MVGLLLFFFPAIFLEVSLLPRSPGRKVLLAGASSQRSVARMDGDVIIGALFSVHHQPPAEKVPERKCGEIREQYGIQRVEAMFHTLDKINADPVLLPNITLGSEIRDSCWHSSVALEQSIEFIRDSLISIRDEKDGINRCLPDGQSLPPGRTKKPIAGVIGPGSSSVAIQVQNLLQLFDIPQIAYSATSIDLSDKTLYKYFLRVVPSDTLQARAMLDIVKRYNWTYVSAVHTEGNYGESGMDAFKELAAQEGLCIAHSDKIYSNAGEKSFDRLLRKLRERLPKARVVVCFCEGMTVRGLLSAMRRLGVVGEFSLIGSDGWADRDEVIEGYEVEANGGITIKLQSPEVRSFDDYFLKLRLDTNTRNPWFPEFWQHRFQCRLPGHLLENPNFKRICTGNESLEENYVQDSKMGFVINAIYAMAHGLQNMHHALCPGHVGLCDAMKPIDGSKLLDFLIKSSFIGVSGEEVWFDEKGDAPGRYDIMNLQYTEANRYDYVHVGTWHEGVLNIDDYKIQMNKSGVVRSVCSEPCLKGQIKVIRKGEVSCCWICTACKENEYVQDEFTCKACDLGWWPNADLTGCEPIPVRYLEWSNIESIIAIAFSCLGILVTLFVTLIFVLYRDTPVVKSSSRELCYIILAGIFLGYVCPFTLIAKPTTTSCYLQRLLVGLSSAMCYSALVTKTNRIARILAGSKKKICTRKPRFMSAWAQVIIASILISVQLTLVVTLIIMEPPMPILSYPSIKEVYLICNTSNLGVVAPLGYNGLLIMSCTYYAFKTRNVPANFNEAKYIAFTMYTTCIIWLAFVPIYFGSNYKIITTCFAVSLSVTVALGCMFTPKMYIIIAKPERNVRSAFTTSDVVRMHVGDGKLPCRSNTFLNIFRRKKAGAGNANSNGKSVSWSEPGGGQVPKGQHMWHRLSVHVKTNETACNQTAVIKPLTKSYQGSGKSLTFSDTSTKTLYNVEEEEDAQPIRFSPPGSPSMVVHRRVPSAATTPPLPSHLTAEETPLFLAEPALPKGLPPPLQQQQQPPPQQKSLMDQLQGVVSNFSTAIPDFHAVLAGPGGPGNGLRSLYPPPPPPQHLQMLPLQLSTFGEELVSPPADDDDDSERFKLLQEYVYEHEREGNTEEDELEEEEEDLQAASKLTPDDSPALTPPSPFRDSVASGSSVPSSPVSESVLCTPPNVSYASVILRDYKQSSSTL

IC50 [1]: 232 µM | EC50 [2]: 54.9 µM
Structure (SMILES): N[C@H](C(=O)O)C12C3C4C1C1C2C3C41C(=O)O (some centres not stated)
